Assay results reported in ChEMBL document CHEMBL4184331 (J Med Chem, 2018).

What was measured:
Glucocorticoid receptor [1] = target: T1, Glucocorticoid receptor (Homo sapiens, UniProt P04150); experiment: biochemical
T1 sequence (P04150 whole entry): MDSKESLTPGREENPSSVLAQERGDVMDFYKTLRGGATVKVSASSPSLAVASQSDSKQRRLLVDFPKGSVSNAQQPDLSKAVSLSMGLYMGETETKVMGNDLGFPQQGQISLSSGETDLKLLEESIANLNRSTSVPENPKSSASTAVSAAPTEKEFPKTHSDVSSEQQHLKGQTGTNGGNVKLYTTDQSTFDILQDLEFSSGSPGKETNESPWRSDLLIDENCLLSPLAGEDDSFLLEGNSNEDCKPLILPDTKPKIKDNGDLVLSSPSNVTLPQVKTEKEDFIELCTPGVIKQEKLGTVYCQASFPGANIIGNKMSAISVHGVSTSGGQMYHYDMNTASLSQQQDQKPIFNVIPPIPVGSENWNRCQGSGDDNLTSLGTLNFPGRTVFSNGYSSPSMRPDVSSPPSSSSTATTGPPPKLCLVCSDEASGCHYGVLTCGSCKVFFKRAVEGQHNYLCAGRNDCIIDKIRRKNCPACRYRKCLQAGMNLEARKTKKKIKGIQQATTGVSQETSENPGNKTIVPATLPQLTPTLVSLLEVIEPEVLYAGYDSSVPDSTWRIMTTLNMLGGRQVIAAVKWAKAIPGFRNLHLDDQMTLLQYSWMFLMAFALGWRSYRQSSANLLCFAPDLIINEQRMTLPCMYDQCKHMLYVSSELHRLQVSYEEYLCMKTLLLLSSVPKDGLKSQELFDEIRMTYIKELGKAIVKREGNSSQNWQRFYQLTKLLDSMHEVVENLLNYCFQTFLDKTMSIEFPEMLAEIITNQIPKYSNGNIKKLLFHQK
Description: Displacement of [3H]dexamethasone from human recombinant glucocorticoid receptor expressed in insect cells after 24 hrs by scintillation proximity assay

Glucocorticoid receptor [2] = target: T1, Glucocorticoid receptor
Description: Induction of nuclear translocation of human recombinant ProLabel-tagged glucocorticoid receptor expressed in CHO-K1 cells after 3 hrs by luminescence method

RAW264.7 = experiment: cells; conditions: Mus musculus
Description: Antiinflammatory activity in mouse RAW264.7 cells assessed as inhibition of LPS-induced nitric oxide release preincubated for 15 mins followed by LPS challenge measured after 18 hrs by Griess assay

[3] = target: T2, Mineralocorticoid receptor (Homo sapiens, UniProt P08235)
T2 sequence (P08235 whole entry): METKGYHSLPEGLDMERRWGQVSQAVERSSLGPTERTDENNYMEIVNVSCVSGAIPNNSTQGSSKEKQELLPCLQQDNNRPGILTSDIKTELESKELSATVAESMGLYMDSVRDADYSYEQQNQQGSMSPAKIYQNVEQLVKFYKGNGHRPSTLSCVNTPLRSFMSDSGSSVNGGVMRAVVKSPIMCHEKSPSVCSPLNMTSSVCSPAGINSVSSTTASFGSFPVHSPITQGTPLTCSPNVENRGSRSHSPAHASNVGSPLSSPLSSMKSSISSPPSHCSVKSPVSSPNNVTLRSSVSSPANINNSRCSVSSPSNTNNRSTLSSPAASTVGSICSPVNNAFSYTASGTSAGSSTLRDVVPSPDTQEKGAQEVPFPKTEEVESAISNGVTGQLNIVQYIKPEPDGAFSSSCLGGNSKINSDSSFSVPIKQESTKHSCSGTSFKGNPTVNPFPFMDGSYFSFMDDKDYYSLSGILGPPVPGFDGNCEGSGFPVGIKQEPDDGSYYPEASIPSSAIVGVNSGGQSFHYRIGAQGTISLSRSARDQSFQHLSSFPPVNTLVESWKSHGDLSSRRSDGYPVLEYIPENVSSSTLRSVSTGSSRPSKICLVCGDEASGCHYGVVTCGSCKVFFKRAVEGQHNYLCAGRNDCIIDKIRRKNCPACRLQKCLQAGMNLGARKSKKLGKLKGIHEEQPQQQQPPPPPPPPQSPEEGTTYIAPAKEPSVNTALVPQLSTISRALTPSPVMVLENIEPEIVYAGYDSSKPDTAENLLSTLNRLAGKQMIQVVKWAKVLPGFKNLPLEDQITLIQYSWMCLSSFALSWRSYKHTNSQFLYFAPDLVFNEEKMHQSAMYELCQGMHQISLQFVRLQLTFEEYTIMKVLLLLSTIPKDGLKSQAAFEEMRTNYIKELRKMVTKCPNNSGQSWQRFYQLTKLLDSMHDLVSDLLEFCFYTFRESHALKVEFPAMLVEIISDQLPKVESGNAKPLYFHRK
Description: Induction of nuclear translocation of human recombinant ProLabel-tagged mineralocorticoid receptor expressed in CHO-K1 cells after 3 hrs by luminescence method

[4] = AUClast in Sprague-Dawley rat plasma at 1 umol/kg, it by HPLC-MS/MS method; assay type: ADME, cell-free; conditions: inhaled or intranasal
[5] = MRTlast in Sprague-Dawley rat plasma at 1 umol/kg, it by HPLC-MS/MS method; assay type: ADME, cell-free; conditions: inhaled or intranasal
[6] = Cmax in Sprague-Dawley rat plasma at 1 umol/kg, it by HPLC-MS/MS method; assay type: ADME, cell-free; set-up: dose 1 umol/kg; conditions: inhaled or intranasal
[7] = MRTlast in Sprague-Dawley rat lung at 1 umol/kg, it by HPLC-MS/MS method; assay type: ADME, tissue-based; conditions: inhaled or intranasal
[8] = AUClast in Sprague-Dawley rat lung at 1 umol/kg, it by HPLC-MS/MS method; assay type: ADME, tissue-based; conditions: in vivo, inhaled_or_intranasal
[9] = Cmax in Sprague-Dawley rat lung at 1 umol/kg, it by HPLC-MS/MS method; assay type: ADME, tissue-based; set-up: dose 1 umol/kg; conditions: in vivo, inhaled_or_intranasal

Description for physchem: Dissociation constant, pKa of the compound

SMILES	pKa (physchem)	Ki (Glucocorticoid receptor [1])	EC50 (Glucocorticoid receptor [2])	IC50 (RAW264.7)	further results
CC(=O)[C@@]12CN(Cc3cccc(Cl)c3)C[C@@H]1C[C@H]1[C@@H]3C[C@H](F)C4=CC(=O)C=C[C@]4(C)[C@@]3(F)[C@@H](O)C[C@@]12C	6.9	0.57 nM	7.7 nM	1.4 nM	
C[C@]12C=CC(=O)C=C1[C@@H](F)C[C@H]1[C@@H]3C[C@H]4CN(S(=O)(=O)c5cccs5)C[C@@]4(C(=O)CO)[C@@]3(C)C[C@H](O)[C@@]12F		0.66 nM	7.4 nM	3.68 nM	
C[C@]12C=CC(=O)C=C1[C@@H](F)C[C@H]1[C@@H]3C[C@H]4CN(Cc5cccnc5)C[C@@]4(C(=O)CO)[C@@]3(C)C[C@H](O)[C@@]12F	4.11		63.9 nM		
CC(C)CCN1C[C@@H]2C[C@H]3[C@@H]4C[C@H](F)C5=CC(=O)C=C[C@]5(C)[C@@]4(F)[C@@H](O)C[C@]3(C)[C@]2(C(=O)CO)C1	7.98	1.9 nM	3.4 nM	0.22 nM	
COC(=O)[C@@]12CN(Cc3ccccc3)C[C@@H]1C[C@H]1[C@@H]3C[C@H](F)C4=CC(=O)C=C[C@]4(C)[C@@]3(F)[C@@H](O)C[C@@]12C	7.12	0.71 nM	5.7 nM		
CN1C[C@@H]2C[C@H]3[C@@H]4C[C@H](F)C5=CC(=O)C=C[C@]5(C)[C@@]4(F)[C@@H](O)C[C@]3(C)[C@]2(C(=O)CO)C1	7.91		54.9 nM		
C[C@]12C=CC(=O)C=C1[C@@H](F)C[C@H]1[C@@H]3C[C@H]4CN(c5cccc(Cl)c5)C[C@@]4(C(=O)CO)[C@@]3(C)C[C@H](O)[C@@]12F	4.06	0.52 nM	5.8 nM	0.4 nM	
C[C@]12C=CC(=O)C=C1[C@@H](F)C[C@H]1[C@@H]3C[C@H]4CN(Cc5ccccc5)C[C@@]4(C(=O)CO)[C@@]3(C)C[C@H](O)[C@@]12F	6.96	0.66 nM	1.7 nM	0.15 nM	
Cc1cccc(CN2C[C@@H]3C[C@H]4[C@@H]5C[C@H](F)C6=CC(=O)C=C[C@]6(C)[C@@]5(F)[C@@H](O)C[C@]4(C)[C@]3(C(=O)CO)C2)c1	7.27	0.52 nM	11.3 nM	0.3 nM	
C[C@]12C=CC(=O)C=C1[C@@H](F)C[C@H]1[C@@H]3C[C@H]4CN(CC5CC5)C[C@@]4(C(=O)CO)[C@@]3(C)C[C@H](O)[C@@]12F	7.83		15.2 nM		
CC(C)CCN1C[C@@H]2C[C@H]3[C@@H]4C[C@H](F)C5=CC(=O)C=C[C@]5(C)[C@@]4(F)[C@@H](O)C[C@]3(C)[C@]2(C(=O)SCF)C1		4.8 nM	57 nM		EC50 [3]: > 3 µM
CN(C)C(=O)[C@@]12CN(Cc3ccccc3)C[C@@H]1C[C@H]1[C@@H]3C[C@H](F)C4=CC(=O)C=C[C@]4(C)[C@@]3(F)[C@@H](O)C[C@@]12C	7.3	1.1 nM	40.3 nM		EC50 [3]: > 3 µM
C[C@]12C=CC(=O)C=C1[C@@H](F)C[C@H]1[C@@H]3C[C@H]4CN(Cc5cccc(Cl)c5)C[C@@]4(C(=O)CO)[C@@]3(C)C[C@H](O)[C@@]12F.Cl					AUC(0-t) [4]: 0.12 µM·h; MRT last [5]: 1.1 h; Cmax [6]: 90 nM; MRT last [7]: 6.4 h; AUClast [8]: 9 nmol·h/g; Cmax [9]: 9.03 nmol/g
C[C@]12C=CC(=O)C=C1[C@@H](F)C[C@H]1[C@@H]3C[C@H]4CN(C(=O)c5ccccc5)C[C@@]4(C(=O)CO)[C@@]3(C)C[C@H](O)[C@@]12F			248 nM		
C[C@]12C=CC(=O)C=C1[C@@H](F)C[C@H]1[C@@H]3C[C@H]4CN(c5ccccc5)C[C@@]4(C(=O)CO)[C@@]3(C)C[C@H](O)[C@@]12F	8.82	0.39 nM	1.3 nM	0.34 nM	
C[C@]12C=CC(=O)C=C1[C@@H](F)C[C@H]1[C@@H]3C[C@H]4CN(c5ccc(Cl)cc5)C[C@@]4(C(=O)CO)[C@@]3(C)C[C@H](O)[C@@]12F	4.42	0.67 nM	8.5 nM	0.66 nM	
C[C@]12C=CC(=O)C=C1[C@@H](F)C[C@H]1[C@@H]3C[C@H]4CN(Cc5ccc(Cl)cc5)C[C@@]4(C(=O)CO)[C@@]3(C)C[C@H](O)[C@@]12F	6.72		1.3 nM	0.25 nM	
C[C@]12C=CC(=O)C=C1[C@@H](F)C[C@H]1[C@@H]3C[C@H]4CN(Cc5ccc6ccccc6n5)C[C@@]4(C(=O)CO)[C@@]3(C)C[C@H](O)[C@@]12F	3.42	0.71 nM	31.2 nM	11.9 nM	
C[C@]12C=CC(=O)C=C1[C@@H](F)C[C@H]1[C@@H]3C[C@H]4CN(Cc5ccccc5)C[C@@]4(C(=O)CF)[C@@]3(C)C[C@H](O)[C@@]12F	6.87	0.52 nM	3.4 nM		
Cc1ccc(CN2C[C@@H]3C[C@H]4[C@@H]5C[C@H](F)C6=CC(=O)C=C[C@]6(C)[C@@]5(F)[C@@H](O)C[C@]4(C)[C@]3(C(=O)CO)C2)cc1	7.11	0.52 nM	8.4 nM	0.16 nM	
C[C@]12C=CC(=O)C=C1[C@@H](F)C[C@H]1[C@@H]3C[C@H]4CN(C(=O)OCc5ccccc5)C[C@@]4(C(=O)CO)[C@@]3(C)C[C@H](O)[C@@]12F		0.66 nM	44.1 nM		
C[C@]12C=CC(=O)C=C1[C@@H](F)C[C@H]1[C@@H]3C[C@H]4CN(Cc5ccc(CSc6ccc(O)cc6)cc5)C[C@@]4(C(=O)CO)[C@@]3(C)C[C@H](O)[C@@]12F	6.95	0.62 nM	2.1 nM	0.44 nM	EC50 [3]: 0.0016 µM
C[C@]12C=CC(=O)C=C1[C@@H](F)C[C@H]1[C@@H]3C[C@H]4CN(Cc5cccc(Cl)c5)C[C@@]4(C(=O)OCF)[C@@]3(C)C[C@H](O)[C@@]12F	6.58	0.57 nM	20.8 nM		
C[C@]12C=CC(=O)C=C1[C@@H](F)C[C@H]1[C@@H]3C[C@H]4CN(c5ccccc5)C[C@@]4(C(=O)CF)[C@@]3(C)C[C@H](O)[C@@]12F	8.74	0.52 nM	3.2 nM	1.38 nM	
C[C@]12C=CC(=O)C=C1[C@@H](F)C[C@H]1[C@@H]3C[C@H]4CN(Cc5cccc(Cl)c5)C[C@@]4(C(=O)SCF)[C@@]3(C)C[C@H](O)[C@@]12F			45 nM		EC50 [3]: > 3 µM
C[C@]12C=CC(=O)C=C1[C@@H](F)C[C@H]1[C@@H]3C[C@H]4CN(Cc5ccccc5)C[C@@]4(C(=O)NCc4ccccc4)[C@@]3(C)C[C@H](O)[C@@]12F	7.05	9.8 nM	50 nM		
